Measurements reported in patent publication US11643691B2, “Predictive biomarkers for cancer immunotherapy and methods of using same” (Duke University, priority 2018, dated 2023).

Tests used:
[1] = tested on: CD8+ T cell proliferation; assay: T cell proliferation assay (CellTrace Violet dilution, OT-1 splenocytes with conditioned DCs); assay type: cell-based, mice; conditions: DCs pre-treated, LPS stimulated
Procedure: T Cell Proliferation Assay: Splenocytes of OT-1 mice (H-2b) were isolated and stained with CellTrace Violet (ThermoFisher). Preconditioned DCs were loaded with ovalbumin peptide SIINFEKL, and co-cultured at a DC:splenocyte ratio of 40,000:120,000 cells for 72 hrs. CD8+ T cell proliferation was measured by the dilution of Cell Trace Violet dye by flow cytometry.

[2] = tested on: CD4+FoxP3+ Treg cells; assay: In vitro Treg cell assay (conditioned DCs with naive CD4+ T cells); assay type: cell-based, mice; conditions: for DC-mediated Treg cell differentiation in vitro: treated DCs co-cultured with naive CD4+ T cells
Procedure: (§1) Dendritic Cell Conditioning: DCs were treated with Wnt3a (100 ng/mL), Wnt5a (200 ng/mL), LPS (1 μg/mL), 1-MT (1 mM), 2DG (1 mM), or ETO (100 μM), 2-DG(2-deoxy-d-glucose, 1 mM), Oligomycin (1 μM), succinylacetone (250 μM), or vehicle control either for 24 or 48 hrs prior to their use in both in vitro and in vivo experiments.
Treg Cell Assays: For in vivo Treg cell assays, DCs (C57, H-2b) were pre-treated for 48 hours and delivered by intradermal injection into the footpad of Foxp3-mRFP mice. Draining inguinal and popliteal lymph nodes were resected 5 days later and analyzed for CD4+Foxp3+ Treg cells. For in vitro Treg cell assays, DCs (Balb/c, H-2d) were pre-treated for either 24 or 48 hrs, and re-plated at a 1:3 DC:T-cell ratio with purified allogeneic naive Foxp3-mRFP(H-2b) CD44loCD62LhiCD4+ Tcells. These co-cultures were incubated for 6 days and quantitated for CD4+FoxP3+ Treg cells by flow cytometry.

[3] = tested on: DCs; assay: Extracellular acidification rate (ECAR), Seahorse XFe24 flux analysis of DCs; assay type: cell-based, Murine
Procedure: as §1
(§2) Cellular Energy Metabolism Analysis: DC energy metabolism was measured using the XFe24 extracellular flux analyzer (Seahorse Bioscience), with the glycolysis stress test kit and the mitochondrial stress test kit as previously described (Everts et al., 2014, Zhao and Klimecki, 2015). For experiments involving LPS injection, DCs were plated in XFe24 plates (200,000/well in 500p1) and treated with LPS for 48 hours prior to XF analysis. DCs were washed and analyzed in XF media (RPMI without sodium bicarbonate, 10 mM glucose, 1% FBS, 2 mM L-glutamine). ECAR was analyzed in real-time with or without LPS stimulation. For experiments involving BrafV600EPten−/− cell line-derived conditioned media (CM), collected CM was concentrated and desalted with an Amicon Ultra 30K filter according to manufacturer's recommendations (Milipore). Final concentrate was further washed with XF media 3 times, added to DCs immediately prior to OCR analysis. For standard ECAR analysis, XF media (without glucose) was used to wash cells prior to the assay. A final concentration of 10 mM glucose, 1 μM oligomycin, 50 mM 2-DG(sigma) were injected through XFe24 port A-C. For standard OCR analysis, XF media (with 10 mM glucose) was used to wash cells, a final concentration of 1 μM oligomycin, 1.5 μM FCCP (fluoro-carbonyl cyanide phenylhydrazone), 100 nM rotenone, and 1 μM of antimycin-A (Sigma) were injected through XFe24 port A-C.

[4] = tested on: syngeneic BRAF^V600EPTEN^−/− melanomas; assay: Syngeneic melanoma study with NLRP3i and anti-PD-1 ab; assay type: in vivo
Procedure: (A) Treatment of syngeneic BRAF^V600EPTEN^−/− melanomas with IgG isotype control ab (200 μg ip every 3 days), NLRP3i (MCC950 10 μg ip every 3 days), anti-PD-1 ab (200 μg ip every 3 days), or both NLRP3i and anti-PD-1 ab combination therapy (n=8). (B) Gr-MDSC flow cytometry analysis of resected BRAF^V600EPTEN^−/− melanomas following treatment with IgG isotype control ab, NLRP3i, anti-PD-1 ab, or both NLRP3i and anti-PD-1 ab combination therapy (n=4). top, representative flow cytometry dot plot. (C) CD8^+ T cell flow cytometry analysis of resected BRAF^V600EPTEN^−/− melanomas following treatment with IgG isotype control ab, NLRP3i, anti-PD-1 ab, or both NLRP3i and anti-PD-1 ab combination therapy (n=4). All data is mean±SEM. *P<0.05.
As depicted in FIG. 21A, NLRP3 inhibition can be combined with a […] (e.g. PD-1 inhibitor) to augment the anti-tumor effect of the PD-1 inhibitor therapy.

[5] = tested on: DCs; assay: PpIX flow cytometry analysis and hemin colorimetric assay; assay type: cell-based, Murine
Procedure: IDO enzymatic assay and Hemin assay: DC IDO enzyme activity was measured by the conversion of L-tryptophan to L-kynurenine in conditioned media by HPLC (Pallotta et al., 2011). Intracellular hemin was measured using a colorimetric assay kit (BioVision).
PpIX Analysis: DCs were terminally incubated in the presence of 1 mM δ-aminolevulinic acid (ALA) for 4 hrs. Intracellular PpIX was analyzed by flow cytometry as previously described (Hryhorenko et al., 1998).

[6] = tested on: DCs; assay: Oxygen consumption rate (OCR) / OXPHOS, Seahorse XFe24 flux analysis of murine DCs; assay type: cell-based; conditions: DCs pre-treated
Procedure: as §1
as §2, with “A final concentration of 10 mM glucose, 1 μM oligomycin, 50 mM 2-DG(sigma) were injected through XFe24 port A-C. For standard OCR analysis, XF media (with 10 mM glucose) was used to wash cells, a final concentration of 1 μM oligomycin, 1.5 μM FCCP (fluoro-carbonyl cyanide phenylhydrazone), 100 nM rotenone, and 1 μM of antimycin-A (Sigma) were injected through XFe24 port A-C.” left out

[7] = tested on: DCs; assay: qRT-PCR / qPCR array / immunoblot gene expression in DCs; assay type: cell-based, Murine
Procedure: Dendritic Cell Conditioning: DCs were treated with Wnt3a (100 ng/mL), Wnt5a (200 ng/mL), LPS (1 μg/mL), 1-MT (1 mM), 2DG (1 mM), or ETO (100 μM), 2-DG(2-deoxy-d-glucose, 1 mM), Oligomycin (1 μM), succinylacetone (250 μM), […]
Antibodies, Immunoprecipitation, and Immunoblot Analysis: Primary antibodies including CPT1A (Cell signaling), PPAR-γ (Santa Cruz Biotechnology), β-catenin, β-actin (Millipore), p-AMPK(T172)/AMPK (Cell signaling), p-AKT(T308)/Akt (Cell Signaling) were used at 1:1000. Secondary antibodies including goat anti-rabbit IgG-HRP (Millipore) and goat anti-mouse IgG-HRP (Millipore) were used at 1:5000. Cells were lysed in Laemmli sample buffer after treatment and subjected to SDS-polyacrylamide gel electrophoresis and immunoblot analysis. For immunoprecipitation, cells were lysed in radio immunoprecipitation assay (RIPA) buffer [10 mM sodium phosphate (pH 8.0), 150 mM NaCl, 1% Triton X-100, 1% sodium deoxycholate, and 0.1% SDS in the presence of 1 mM DTT, 1 mM phenylmethylsulfonylfluoride, and a protease inhibitor cocktail (Sigma)], precleared with protein A beads, and then incubated with 1 μg of antibody against β-catenin or isotype control IgG with protein A-agarose beads on a rotator overnight at 4° C. After 3 washes with RIPA buffer, immunoprecipitated complexes were eluted in sample buffer by boiling and subjected to immunoblot analysis. Immunoblots were visualized by chemiluminescence substrate (ThermoFisher) and imaged by a ChemiDoc XRSplus system (BioRad).
RNA Isolation, RT-qPCR, qPCR Array: Total RNA was isolated by RNeasy Plus Mini Kit(Qiagen). RNA(500 ng) were used in cDNA Synthesis (iScript, BioRad). Quantification of mRNA for genes involved in PPARγ signaling was performed using Mouse PrimePCR PPAR Array according to the manufacturer's protocol (BioRad). Real-time PCR was performed using an ABI7500 Real-Time PCR system (Life Technologies). Data analysis utilized the PrimePCR Analysis Software (BioRad). Conventional qPCR was performed using validated primers, and SsoAdvanced Universal SYBR Green Super mix (BioRad) or Taqman probes (Applied Biosystems) for heme synthesis enzymes.

Question: With O=CC[C@@H](O)[C@H](O)[C@H](O)CO [2-DG, 2-Deoxy-D-glucose, reference compound] as the molecule, how does the “LPS-induced DC-mediated antigen-specific T cell proliferation” value [1] read?
Answer: The value was “suppresses LPS-induced DC-mediated antigen-specific T cell proliferation”.

Question: And the “DC-mediated Treg cell differentiation in vitro” value [2]?
Answer: Its value is “enhanced Treg cell differentiation in vitro”.

Question: How did the “LPS-induced glycolytic surge (ECAR)” value ([3]; DCs pre-treated) turn out when NC(=O)c1ncn([C@@H]2O[C@H](CO)[C@@H](O)[C@H]2O)c1N [AICAR, reference compound] was run?
Answer: The value was “antagonize the glycolytic surge required for DC maturation”.

Question: What does the source list for CC(C)(O)c1coc(S(=O)(=O)NC(=O)Nc2c3c(cc4c2CCC4)CCC3)c1 [MCC950]?
Answer: efficacy of anti-PD-1 ab immunotherapy ([4]; NLRP3i added to anti-PD-1 ab): Enhances the Efficacy of Anti-PD-1 Ab Immunotherapy; Gr-MDSC recruitment (Ly6G+ Gr-MDSCs) ([4]; flow cytometry of resected melanomas): Suppresses Gr-MDSC Recruitment

Question: Oc1nc(-c2ccc(C(F)(F)F)cc2)nc2c1CSCC2 [XAV939, reference compound] was tested. Which “glycolysis in DCs (ECAR)” value [3] did it give?
Answer: The value was “promoted glycolysis in DCs”.

Question: For CC[C@H]1/C=C/C=C/C[C@@H](C)[C@H](O)[C@@](C)(O)C(=O)[C@@H](C)[C@H](O)[C@@H](C)C(=O)[C@@H](C)[C@H](O)[C@@H](C)/C=C/C(=O)O[C@@H]2[C@H](C)[C@H](CC1)O[C@]1(CC[C@H](C)[C@H](C[C@@H](C)O)O1)[C@H]2C [oligomycin, Oligomycin], which “DC-mediated Treg cell differentiation in vitro” value [2] is on record?
Answer: Its value is “eliminated these Treg cell populations”.

Question: For CC(=O)CC(=O)CCC(=O)O [succinylacetone, 4,6-Dioxoheptanoic acid], which “ability of Wnt5a-conditioned DCs to drive Treg cell differentiation in vitro” value ([2]; Wnt5a plus inhibitor) is on record?
Answer: Its value is “significantly abrogated the ability of Wnt5a-stimulated DCs to promote Treg cell generation”.

Question: What does the source list for Wnt3a?
Answer: DC concentrations of PpIX and hemin [5]: failed to enhance PpIX synthesis in DCs; glycolysis in DCs (ECAR) [3]: no changes; OXPHOS in DCs (OCR) [6]: no changes; expression of Alas1 and further enzymes of PpIX synthesis ([7]; qRT-PCR): not; PPAR-γ (Pparg) and CPT1A (Cpt1a) expression ([7]; real-time qPCR and immunoblot, murine and human DCs for rWnt5a): failed to induce expression of both PPAR-γ and CPT1A in DCs; DC-mediated Treg cell differentiation in vitro [2]: failed to condition DCs to promote Treg cell differentiation
